Experimental data reported in US20210308061A1, “PHARMACEUTICAL COMPOSITIONS WITH A CDC7 INHIBITOR” (TAKED PHARMACEUTICAL COMPANY LIMITED, priority 2018, published 2021).

Assay: Powder flowability (flow factor FFc), FT4 powder rheometer
Type: physicochemical
Settings: Compound 1 alone
Protocol: For the simulation of the DG process, compression pressure was adjusted to produce ribbon of different porosity. The flowability and compressibility of either preblend or milled ribbon was measured to evaluate the manufacturability of each formulation on the DC and the DG processes. The peak force value of compression and the vertical projection area of tooling were used to calculate the maximum compression pressure (CP). Powder flowability (i.e., flow factor (FFc)) was measured using the FT4 powder rheometer with the characterization method of 3 kPa pre-consolidation and 10 ml filling volume (Freeman Technology, Tewkesbury UK). This method was applied because it was representative of powder flow scenarios in most pharmaceutical manufacturing processes. The true density of powder was measured using the AccuPyc 1340 pycnometer (Micrometrics, Norcross Ga. USA) to calculate porosity of the ribbon.

Cc1[nH]ncc1-c1cc2nc([C@@H]3CC4CCN3CC4)[nH]c(=O)c2s1 [Compound 1, 2-[(2S)-1-azabicyclo[2.2.2]oct-2-yl]-6-(3-methyl-1H-pyrazol-4-yl)thieno[3,2-d]pyrimidin-4(3H)-one]
flow factor: about 2.3
